Experiments:
[1] = system: intimal hyperplasia in Brown Norway aortic segments transplanted into Lewis rats; assay: Aortic transplant model, histomorphometric analysis of intimal hyperplasia; format: in vivo, rat; details: CO 250 ppm after transplantation and for 56 days; vs air-exposed recipients; day 56; p<0.001
Text: (§1) Animals. Male (250-350 g) Brown Norway rats (RT1^n) were used as aortic graft donors and male (250-350 g) Lewis rats (RT11) as recipients. Dawley (400-450 g) rats were used in the balloon injury model. Adult male C57BL/6, C57/S129, p21^−/− and p53^−/− null mice were purchased from Jackson Laboratory (Bar Harbor, Me.). mkk3^(−/−) null mice were generated as described Lu et al. (EMBO. 18:1845-1857 (1999)). The inos^−/− and enos^−/− mice were bred at the University of Pittsburgh. Aortic transplant model. Aortic transplantation was performed as described in Shimizu et al. (Nat. Med. 7:738-741 (2001)). Briefly, 3 to 4 cm of descending aorta was harvested from the donor and implanted between the renal arteries and the aortic bifurcation of the recipient. Both edges of the native abdominal aorta were ligated. Balloon injury model. Balloon angioplasty was carried out as described in Murakami et al. (Atherosclerosis 157:361-368 (2001)). […] [^3H]thymidine incorporation was measured by scintillation spectroscopy and presented as mean counts/min/well. […] Areas from eight to ten captured images were calculated using digital imaging software as number of pixels corresponding to those areas. Twenty-four to forty-eight sections from each group were statistically analyzed with SPSS software version 10. […]

mouse SMC = assay: SMC proliferation, [3H]thymidine incorporation; format: cell-based; details: for SMC proliferation / Inhibition of SMC proliferation versus air treated controls: CO 250 ppm
Text: (§2) Animals. Male (250-350 g) Brown Norway rats (RT1^n) were used as aortic graft donors and male (250-350 g) Lewis rats (RT11) as recipients. Dawley (400-450 g) rats were used in the balloon injury model. Adult male C57BL/6, C57/S129, p21^−/− and p53^−/− null mice were purchased from Jackson Laboratory (Bar Harbor, Me.). mkk3^(−/−) null mice were generated as described Lu et al. (EMBO. 18:1845-1857 (1999)). The inos^−/− and enos^−/− mice were bred at the University of Pittsburgh. Aortic transplant model. Aortic transplantation was performed as described in Shimizu et al. (Nat. Med. 7:738-741 (2001)). Briefly, 3 to 4 cm of descending aorta was harvested from the donor and implanted between the renal arteries and the aortic bifurcation of the recipient. Both edges of the native abdominal aorta were ligated. Balloon injury model. Balloon angioplasty was carried out as described in Murakami et al. (Atherosclerosis 157:361-368 (2001)). Briefly, a 2 Fr. arterial embolectomy catheter (Baxter, Chicago, Ill.) was inserted into the common carotid artery, and injury was created by inflating the balloon to 5 atmospheres of pressure for 5 minutes. The arteries were flushed and the external carotid artery was ligated, ensuring return of blood flow through the common and internal carotid arteries. Injury of the vessel wall and subsequent pathological analysis was made in a manner that was blinded to the treatment group. CO exposure. CO was delivered to animals as described in Otterbein et al. (Nat. Med. 6:422-428 (2000)). Graft donors and recipients were exposed to CO (250 ppm) for two days before transplantation and for 56 days immediately following transplantation. In the balloon injury model, rats received either no pretreatment or were exposed to CO (250 ppm) for one hour prior to injury. Following surgery rats were housed in room air for two weeks. Cells. Primary mouse and rat smooth muscle cells (SMC) were isolated and cultured as described in Laubach et al. (Proc Natl Acad Sci USA 92:10688-9 (1995)). Mouse SMC isolated from HO-1^−/− mice were obtained as described in Duckers et al. (Nat. Med. 7:693-698 (2001)). Cell treatment and reagents. Guanylate cyclase inhibitor 1H(1,2,4) oxadiazolo(4,3-a)quinoxalin-1 (ODQ; Calbiochem-Novabiochem, San Diego, Calif.; 10-100 μM) and p38 MAPK inhibitor pyridinyl imidazol SB203580 (Calbiochem; 5-20 μM) were dissolved in DMSO. The cGMP analogue 8-bromo-cGMP sodium salt (8-Br-cGMP; Sigma-Aldrich, St. Louis, Mo.; 10-100 μM) and the PKG inhibitor (10-100 μM; Alexis Biochemicals) were dissolved in water. Cell counts and [^3H] thymidine incorporation. Rat and mouse SMC were isolated and cultured as described in Peyton et al. (Blood 99:4443-4448 (2002)). Proliferation assays were carried out as described in Petkova et al. (J Biol. Chem. 276:7932-7936 (2001)). For [^3H] thymidine incorporation studies, cells were serum-starved overnight and then stimulated with 10% serum containing 5 μCi/ml [^3H] thymidine (New England Nuclear, Boston Mass.). [^3H]thymidine incorporation was measured by scintillation spectroscopy and presented as mean counts/min/well. Histomorphometric analysis. Aortic grafts and carotid arteries were harvested at 56 and 14 days respectively. Vessels were fixed, embedded, and serially sectioned (5μ) in toto. Every third slide was stained with Hematoxylin and Eosin (H&E) for histomorphometric analyses. In both models, one or two images per slide at a resolution of 1520×1080 pixels were captured at a magnification of 25× with a Zeiss microscope (Axioskop, Iowa City, Iowa), RT color SPOT (Diagnostic Instrument, Inc., Saint Joseph, Mich.) and Windows NT (Compaq Computer) using Adobe Photoshop version 5.5 software. Areas from eight to ten captured images were calculated using digital imaging software as number of pixels corresponding to those areas. Twenty-four to forty-eight sections from each group were statistically analyzed with SPSS software version 10. Immunostaining and cell population histomorphometric analysis. […]

rat SMC = assay: SMC proliferation, cell counts; format: cell-based
Text: as §1

rat aortic SMC = assay: Flow cytometry cell cycle analysis; format: cell-based; details: CO 250 ppm, 24 hours
Text: as §1

SMC = assay: Trypan blue and propidium iodide exclusion analyses; format: cell-based; details: SMC exposed to CO
Text: as §1

p21Cip1 = assay: Western blot of p21Cip1 expression; format: cell-based, mouse
Text: as §2

For `[C-]#[O+]` [CO, carbon monoxide], which “Intimal hyperplasia, reduction versus control” value [1] is on record?
Its value is 61.4±12.9%.

And the SMC proliferation (mouse SMC; SMC from ho-1-/- mice)?
The SMC proliferation was “significantly inhibited”.

And the “Inhibition of SMC proliferation versus air treated controls” value (mouse SMC; SMC from nos-2-/- (iNOS) mice)?
Its value is 51±25%.

And the “Inhibition of SMC proliferation versus air treated controls” value (mouse SMC; SMC from nos-3-/- (eNOS) mice)?
Its value is 54±11%.

And the SMC proliferation (mouse SMC; SMC from p21Cip1 deficient mice (p21-/-))?
The SMC proliferation was “not suppressed”.

What about the SMC proliferation (mouse SMC; SMC from p53-/- mice, similar extent as wild type) of the same compound?
The SMC proliferation was “inhibited proliferation”.

What about the “Inhibition of SMC proliferation versus air treated controls” value (mouse SMC; SMC from wild type mice) of the same compound?
The value was 51±12.9%.

What about the Cell proliferation (mouse SMC; cells from mkk3-/- mice exposed to CO) of the same compound?
The Cell proliferation was “did not inhibit proliferation”.

And the “Reversibility of the anti-proliferative effect” value (rat SMC; cessation of CO exposure (250 ppm) on day 6)?
Its value is “reversible”.

And the SMC proliferation (rat SMC; exposure to CO (1000 ppm, FIG. 4B))?
The SMC proliferation was “suppressed”.

And the Cell cycle distribution (rat aortic SMC)?
The Cell cycle distribution was “accumulated in the G0/G1 phase”.

And the “Cell death accompanying inhibition of SMC proliferation” value (SMC)?
The value was “not associated with cell death”.

What about the “Time of maximal p21Cip1 expression after CO exposure” value (p21Cip1; CO 250 ppm, increased by 4 hours, basal at 24 hours) of the same compound?
The value was 16 h.

And the p21Cip1 protein expression (p21Cip1; SMC exposed to CO (250 ppm))?
The p21Cip1 protein expression was “up-regulated”.

— patent US7691416B2, “Methods of treating vascular disease” (priority 2002, dated 2010)
